Test results reported in paper PMC9019572, “Design, Synthesis, and Biological Evaluation of [1,2,4]triazolo[4,3-a] Pyrazine Derivatives as Novel Dual c-Met/VEGFR-2 Inhibitors” (Frontiers in Chemistry, 2022).
Where two headings read alike, the source gives them in different places.

Tests used:
[1] = test system: MCF-7 cells; assay: MTT antiproliferative assay, MCF-7; assay type: cell-based; conditions: Homo sapiens, read-out: IC50 MCF-7
Method: (§1) The cell lines used in the experiment were available from the Cell Culture Collection of Chinese Academy of Sciences (Shanghai Institutes for Biological Sciences, Chinese Academy of Sciences). Referring to the previous experimental methods of our research, all cells were cultured in suitable medium such as DMEM or RPMI-1640 containing 10% fetal bovine serum at 37°C in 5% CO2 and propagated for 24 h. Then the compounds with different gradient concentrations were added into the medium and incubated for 72 h, and then MTT (thiazolyl blue tetrazolium bromide) with a concentration of 5 µg/ml was added to every well for 4 h at 37°C. The formazan crystals were dissolved in 100 µl of DMSO in each well. The absorbancy at 492 nm (for absorbance of MTT formazan) and 630 nm (for the reference wavelength) was measured with an ELISA reader. All compounds were tested three times in each of the cell lines. The results, expressed as inhibition rates or IC50 (half-maximal inhibitory concentration), were the averages of two determinations and calculated by using the Bacus Laboratories Incorporated Slide Scanner (Bliss) software.

[2] = test system: A549 cells; assay: MTT antiproliferative assay, A549; assay type: cell-based; conditions: Homo sapiens, 72 h;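 also: formazan read-out dissolved in DMSO, each compound assayed three times, IC50 computed with Bliss software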
Method: The cell lines used in the experiment were available from the Cell Culture Collection of Chinese Academy of Sciences (Shanghai Institutes for Biological Sciences, Chinese Academy of Sciences). […] The formazan crystals were dissolved in 100 µl of DMSO in each well. […] All compounds were tested three times in each of the cell lines. The results, expressed as inhibition rates or IC50 (half-maximal inhibitory concentration), were the averages of two determinations and calculated by using the Bacus Laboratories Incorporated Slide Scanner (Bliss) software.

[3] = molecular target: c-Met kinase (Homo sapiens, UniProt P08581); assay: c-Met kinase inhibition assay; assay type: biochemical
Method: The kinase assay was performed by Pratzer Biotechnology Co. Ltd. (Changsha, China).

[4] = test system: Hela cells; assay: MTT antiproliferative assay, Hela; assay type: cell-based; conditions: Homo sapiens, 72 h, read-out: IC50 Hela
Method: as §1

[5] = test system: H1975 cells; assay: Antiproliferative activity, H1975; assay type: cell-based; conditions: Homo sapiens, NCI-H1975
Method: as §1

[6] = test system: PC-9 cells; assay: Antiproliferative activity, PC-9; assay type: cell-based; conditions: Homo sapiens
Method: as §1

[7] = test system: H460 cells; assay: Antiproliferative activity, H460; assay type: cell-based; conditions: Homo sapiens, NCI-H460
Method: as §1

Chain of c-Met kinase (P08581 25-1390): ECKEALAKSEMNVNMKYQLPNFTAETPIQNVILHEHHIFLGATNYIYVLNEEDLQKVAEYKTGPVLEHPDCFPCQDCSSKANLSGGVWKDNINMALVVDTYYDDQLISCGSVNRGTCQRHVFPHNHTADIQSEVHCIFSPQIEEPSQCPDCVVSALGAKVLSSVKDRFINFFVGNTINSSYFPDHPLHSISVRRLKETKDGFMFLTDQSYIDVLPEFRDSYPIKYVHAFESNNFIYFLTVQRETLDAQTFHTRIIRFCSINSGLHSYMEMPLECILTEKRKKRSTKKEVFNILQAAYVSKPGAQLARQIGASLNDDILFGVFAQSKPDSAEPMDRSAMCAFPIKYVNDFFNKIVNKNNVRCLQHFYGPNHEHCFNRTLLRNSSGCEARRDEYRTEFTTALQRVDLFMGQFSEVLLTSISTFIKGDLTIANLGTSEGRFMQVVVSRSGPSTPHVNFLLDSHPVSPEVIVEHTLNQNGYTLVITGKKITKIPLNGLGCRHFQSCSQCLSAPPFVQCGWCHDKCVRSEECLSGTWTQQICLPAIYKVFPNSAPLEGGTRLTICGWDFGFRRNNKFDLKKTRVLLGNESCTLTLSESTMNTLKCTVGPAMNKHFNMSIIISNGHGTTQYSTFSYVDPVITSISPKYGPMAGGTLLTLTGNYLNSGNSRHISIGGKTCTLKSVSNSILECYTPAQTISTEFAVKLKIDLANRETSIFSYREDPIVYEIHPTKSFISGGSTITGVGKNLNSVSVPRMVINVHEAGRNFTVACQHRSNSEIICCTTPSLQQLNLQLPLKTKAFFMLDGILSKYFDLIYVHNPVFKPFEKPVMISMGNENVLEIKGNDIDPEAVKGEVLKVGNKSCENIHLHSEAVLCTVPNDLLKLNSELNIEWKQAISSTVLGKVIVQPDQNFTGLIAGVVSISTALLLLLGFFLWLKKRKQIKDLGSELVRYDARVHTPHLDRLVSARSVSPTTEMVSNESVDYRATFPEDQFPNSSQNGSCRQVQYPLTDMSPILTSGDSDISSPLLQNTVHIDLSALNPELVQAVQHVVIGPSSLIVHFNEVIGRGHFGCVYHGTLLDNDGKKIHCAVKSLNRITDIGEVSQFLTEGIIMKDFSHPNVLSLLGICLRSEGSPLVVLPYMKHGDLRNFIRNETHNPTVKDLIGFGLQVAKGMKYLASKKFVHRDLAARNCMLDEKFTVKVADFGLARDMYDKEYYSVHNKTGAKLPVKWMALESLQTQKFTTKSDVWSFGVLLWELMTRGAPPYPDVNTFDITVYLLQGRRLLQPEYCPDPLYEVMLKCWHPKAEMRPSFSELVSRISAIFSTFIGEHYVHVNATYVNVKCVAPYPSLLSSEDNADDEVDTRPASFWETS

Compound | IC50 ([1]; MCF7, MTT, 72 h, MCF-7 cells) [µM] | IC50 [2] [µM] | IC50 [3] [µM] | IC50 ([4]; MTT, Hela cells) [µM] | IC50 ([1]; MCF7, 72 h) [µM] | IC50 ([4]; HeLa) [µM] | melting point [°C] | IC50 [5] [µM] | IC50 [6] [µM] | IC50 [7] [µM]
Cc1nc(-c2ccccn2)sc1C(=O)Nc1ccc(Oc2nccn3cnnc23)cc1 [16b] | 7.87 ± 0.42 | 6.46 ± 0.33 | 0.379 | 12.2 ± 1.08 |  |  |  |  |  | 
COc1cc2c(Oc3ccc(NC(=O)C4(C(=O)Nc5ccc(F)cc5)CC4)cc3F)ccnc2cc1OCCCN1CCOCC1 [Foretinib, foretinib, reference compound] |  |  |  |  | 0.93 ± 0.09 | 1.18 ± 0.25 |  |  |  | 
O=C(Nc1ccc(Oc2nccn3cnnc23)c(F)c1)c1cnn(-c2ccc(Cl)cc2)c1C(F)(F)F [16 k] | 6.51 ± 0.63 | 6.18 ± 0.34 | 0.38 | 12.9 ± 1.06 |  |  |  |  |  | 
O=C(Nc1ccc(Oc2nccn3cnnc23)cc1)c1cnn(-c2ccc(Cl)cc2)c1C(F)(F)F [16d] | 11.5 ± 1.06 | 12.3 ± 0.98 | 0.722 | 19.5 ± 1.94 |  |  | 261.3 to 263.5 |  |  | 
Cc1nnc2c(Oc3ccc(NC(=O)c4cc(-c5cccs5)n[nH]4)cc3)nccn12 [17f] | 6.38 ± 0.85 | 5.73 ± 0.54 | 0.3 | 12.4 ± 1.53 |  |  | 275.6 to 278.1 |  |  | 
Cc1nc(-c2cccnc2)sc1C(=O)Nc1ccc(Oc2nccn3cnnc23)c(F)c1 [16i] | 19 ± 1.32 | 17.4 ± 0.97 |  | 25 ± 2.17 |  |  |  |  |  | 
Cc1nc(-c2ccccc2)sc1C(=O)Nc1ccc(Oc2nccn3c(C)nnc23)cc1 [17a] | 1.43 ± 0.21 | 1.23 ± 0.13 | 0.055 | 2.31 ± 0.29 |  |  |  |  |  | 
Cc1nc(-c2ccncc2)sc1C(=O)Nc1ccc(Oc2nccn3c(C)nnc23)c(F)c1 [17j] | 7.31 ± 0.77 | 7.16 ± 0.45 | 0.45 | 14.2 ± 1.64 |  |  |  |  |  | 
Cc1nc(-c2ccncc2)sc1C(=O)Nc1ccc(Oc2nccn3c(C)nnc23)cc1 [17c] | 8.79 ± 0.89 | 7.68 ± 0.71 | 0.532 | 15.9 ± 1.1 |  |  | 270.7 to 273.8 |  |  | 
Cc1nc(-c2ccccn2)sc1C(=O)Nc1ccc(Oc2nccn3c(C)nnc23)c(F)c1 [17 h] | 4.25 ± 0.76 | 3.56 ± 0.32 | 0.156 | 7.43 ± 0.38 |  |  |  |  |  | 
Cc1nc(-c2ccncc2)sc1C(=O)Nc1ccc(Oc2nccn3cnnc23)cc1 [16c] | 6.45 ± 0.81 | 5.58 ± 0.75 | 0.345 | 14.3 ± 1.15 |  |  | 235.6 to 237.5 |  |  | 
Cc1nc(-c2cccnc2)sc1C(=O)Nc1ccc(Oc2nccn3c(C)nnc23)c(F)c1 [17i] | 25.4 ± 1.54 | 188 |  | > 50 |  |  | 220.7 to 223.1 |  |  | 
O=C(Nc1ccc(Oc2nccn3cnnc23)cc1)c1cc(-c2cccs2)no1 [16f] | > 50 | 27.3 ± 0.86 | > 1 | > 50 |  |  | 291.5 to 293.1 |  |  | 
Cc1nc(-c2ccccc2)sc1C(=O)Nc1ccc(Oc2nccn3c(C)nnc23)c(F)c1 [17 g] |  |  |  |  |  |  | 299 to 302.1 |  |  | 
Cc1nnc2c(Oc3ccc(NC(=O)c4cc(-c5cccs5)no4)cc3F)nccn12 [17 m] | 9.34 ± 1.03 | 8.84 ± 0.97 | 0.653 | 17.4 ± 1.56 |  |  |  |  |  | 
CNC(=O)c1cc(Oc2ccc(NC(=O)Nc3ccc(Cl)c(C(F)(F)F)c3)cc2)ccn1 [Sorafenib, sorafenib, reference compound] |  |  |  |  |  |  |  | 10.2 ± 1 | 5.41 ± 0.73 | 5.27 ± 0.72
Cc1nc(-c2ccccc2)sc1C(=O)Nc1ccc(Oc2nccn3cnnc23)c(F)c1 [16 g] | 9.17 ± 1.03 | 8.21 ± 0.65 | 0.658 | 17.7 ± 1.29 |  |  | 278.1 to 282.7 |  |  | 
Cc1nc(-c2ccccc2)sc1C(=O)Nc1ccc(Oc2nccn3cnnc23)cc1 [16a] | 13.8 ± 1.23 | 12.4 ± 0.97 | 0.794 | 21.5 ± 1.78 |  |  | 265.8 to 268.1 |  |  | 
Cc1nnc2c(Oc3ccc(NC(=O)c4cnn(-c5ccc(Cl)cc5)c4C(F)(F)F)cc3)nccn12 [17e] | 1.74 ± 0.22 | 2.05 ± 0.19 | 0.077 | 4.78 ± 0.43 |  |  |  |  |  | 
Cc1nc(-c2ccc(F)cc2)sc1C(=O)Nc1ccc(Oc2nccn3c(C)nnc23)cc1 [17d] | 6.95 ± 0.67 | 5.21 ± 0.37 | 0.289 | 10.7 ± 1.42 |  |  |  |  |  | 
Cc1nc(-c2ccc(F)cc2)sc1C(=O)Nc1ccc(Oc2nccn3c(C)nnc23)c(F)c1 [17 k] | 18.2 ± 1.28 | 15.3 ± 0.51 |  | 25.3 ± 2.4 |  |  |  |  |  | 
Cc1nc(-c2ccccn2)sc1C(=O)Nc1ccc(Oc2nccn3c(C)nnc23)cc1 [17b] | 5.15 ± 0.72 | 4.31 ± 0.49 | 0.245 | 9.46 ± 0.58 |  |  |  |  |  | 
O=C(Nc1ccc(Oc2nccn3cnnc23)cc1)c1cc(-c2cccs2)n[nH]1 [16e] | 7.13 ± 0.63 | 5.44 ± 0.42 | 0.342 | 11.2 ± 0.96 |  |  |  |  |  | 
Cc1nc(-c2ccccn2)sc1C(=O)Nc1ccc(Oc2nccn3cnnc23)c(F)c1 [16 h] | 8.18 ± 1.12 | 6.56 ± 0.42 | 0.437 | 13.9 ± 1.59 |  |  | 203.4 to 207.6 |  |  | 
O=C(Nc1ccc(Oc2nccn3cnnc23)c(F)c1)c1cc(-c2cccs2)no1 [16l] | 12 ± 1.24 | 11.4 ± 0.76 | 0.725 | 23.3 ± 2.12 |  |  |  |  |  | 
Cc1nc(-c2ccncc2)sc1C(=O)Nc1ccc(Oc2nccn3cnnc23)c(F)c1 [16j] | 3.68 ± 0.34 | 3.26 ± 0.67 | 0.11 | 6.17 ± 0.58 |  |  | 226.9 to 229.1 |  |  | 
